# Test results published in patent publication US6737383B1, “Herbicidal oxadiazolidines” (priority 1999, dated 2004).
# How the values were obtained:
# bamyardgrass = assay: Test B flood test barnyardgrass; assay type: in vivo, Echinochloa crus-galli; settings: for Plant response rating, Barnyardgrass (0 to 10 scale, 0 is no effect, 10 is complete control): Rate 62 g/ha, Pre-emergence; for Plant response rating, Barnyardgrass (0 to 10 scale, 0 is no effect, 10 is complete control) / Barnyardgrass plant response rating (0 to 10 scale, 0 is no effect, 10 is complete control): flood test species, visual evaluation after twelve to sixteen days; for Barnyardgrass plant response rating (0 to 10 scale, 0 is no effect, 10 is complete control): Rate 125 g/ha, under heading Pre-emergence
# Method in brief: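 Plants were grown to the 2-leaf stage before treatment with test chemical, then held in a greenhouse for twelve to sixteen days. Injury was visually rated against untreated controls on a 0–10 scale, where 0 is no effect and 10 is complete control.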
# blackgrass = assay: Test B pre/postemergence blackgrass; assay type: in vivo, Alopecurus myosuroides
# Method in brief: (§1)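 Test chemicals in a non-phytotoxic solvent mixture with surfactant were sprayed preemergence onto planted seeds and postemergence onto plants 2 to 18 cm tall (1- to 4-leaf stage). After twelve to sixteen days in a greenhouse, injury was visually rated against untreated controls from 0 (no effect) to 10 (complete control).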
# crabgrass = assay: Test B pre/postemergence crabgrass; assay type: in vivo, Digitaria sanguinalis
# Method in brief: as §1
# morningglory = assay: Test B pre/postemergence morningglory; assay type: in vivo, Ipomoea hederacea
# Method in brief: as §1
# [1] = Rate 250 g/ha, Pre-emergence (flood test species), scale 0 to 10, 0 is no effect, 10 is complete control
# [2] = Rate 500 g/ha, Pre-emergence section of Table B, 0 to 10 scale (0 no effect, 10 complete control)
# [3] = Postemergence, Rate 62 g/ha, scale 0 to 10, 0 is no effect, 10 is complete control
# [4] = Postemergence, Rate 125 g/ha, scale of 0 to 10 where 0 is no effect and 10 is complete control
# [5] = Postemergence, Rate 250 g/ha, scale of 0 to 10, 0 is no effect, 10 is complete control
# [6] = Postemergence, Rate 500 g/ha, scale of 0 to 10 where 0 is no effect and 10 is complete control
# [7] = Preemergence, Rate 62 g/ha, scale 0 to 10 (0 no effect, 10 complete control)
# [8] = Preemergence, Rate 125 g/ha, scale of 0 to 10 where 0 is no effect and 10 is complete control
# [9] = Preemergence, Rate 250 g/ha, scale 0 to 10 (0 no effect, 10 complete control)
# [10] = Preemergence, Rate 500 g/ha, scale of 0 to 10 where 0 is no effect and 10 is complete control
# [11] = Preemergence, Rate 62 g/ha, scale of 0 to 10 where 0 is no effect and 10 is complete control
# [12] = Rate 500 g/ha, Postemergence, scale 0 to 10, 0 is no effect, 10 is complete control
SMILES,"Plant response rating, Barnyardgrass (0 to 10 scale, 0 is no effect, 10 is complete control) (bamyardgrass)","Barnyardgrass plant response rating (0 to 10 scale, 0 is no effect, 10 is complete control) (bamyardgrass)",Barnyardgrass plant response rating (bamyardgrass; [1]),Barnyardgrass plant response rating (bamyardgrass; [2]),"Plant response rating, Blackgrass (blackgrass; [3])","Plant response rating, Blackgrass (blackgrass; [4])",Blackgrass plant response rating (blackgrass; [5]),"Plant response rating, Blackgrass (blackgrass; [6])",Blackgrass plant response rating (blackgrass; [7]),Blackgrass plant response rating (blackgrass; [8]),"Plant response rating, Blackgrass (blackgrass; [9])","Plant response rating, Blackgrass (blackgrass; [10])","Plant response rating, Crabgrass (crabgrass; [3])",Crabgrass plant response rating (crabgrass; [5]),"Plant response rating, Crabgrass (crabgrass; [9])","Plant response rating, Crabgrass (crabgrass; [10])","Plant response rating, Morningglory (morningglory; [3])",Morningglory plant response rating (morningglory; [5]),"Plant response rating, Morningglory (morningglory; [9])","Plant response rating, Morningglory (morningglory; [10])",further results
CC(C)N(C(=O)n1oc(=O)n(CC2CCCCO2)c1=O)c1ccc(F)cc1 (stereo not drawn) [Compound 624],0,0,0,0,4,5,8,9,1,8,8,9,6,7,9,9,1,1,0,0,"Plant response rating, Crabgrass (crabgrass; [4]): 7; Crabgrass plant response rating (crabgrass; [7]): 7; Plant response rating, Morningglory (morningglory; [4]): 1; Plant response rating, Morningglory (morningglory; [6]): 2; Morningglory plant response rating (morningglory; [7]): 0; Morningglory plant response rating (morningglory; [8]): 0"
CCOC(Cn1c(=O)on(C(=O)N(c2ccccc2)C(C)C)c1=O)OCC [Compound 632],0,0,0,0,0,4,6,8,2,4,7,10,0,8,8,9,1,2,4,5,"Plant response rating, Crabgrass (crabgrass; [4]): 6; Crabgrass plant response rating (crabgrass; [7]): 2; Crabgrass plant response rating (crabgrass; [8]): 7; Plant response rating, Morningglory (morningglory; [4]): 1; Plant response rating, Morningglory (morningglory; [6]): 10; Morningglory plant response rating (morningglory; [7]): 0; Morningglory plant response rating (morningglory; [8]): 0"
CC(C)N(C(=O)n1oc(=O)n(CCC(=O)N(C)C)c1=O)c1ccccc1 [Compound 671],0,0,0,0,0,–,8,–,–,–,8,10,1,8,8,9,1,1,5,8,"Blackgrass plant response rating (blackgrass; [4]): 6; Blackgrass plant response rating (blackgrass; [11]): 5; Plant response rating, Blackgrass (blackgrass; [8]): 7; Blackgrass plant response rating (blackgrass; [12]): 8; Crabgrass plant response rating (crabgrass; [4]): 1; Crabgrass plant response rating (crabgrass; [11]): 4; Plant response rating, Crabgrass (crabgrass; [8]): 8; Crabgrass plant response rating (crabgrass; [12]): 9; Morningglory plant response rating (morningglory; [4]): 1; Morningglory plant response rating (morningglory; [11]): 0; Plant response rating, Morningglory (morningglory; [8]): 2; Morningglory plant response rating (morningglory; [12]): 6"
